# Results published in patent publication US20070099276A1, “Retrovirus-like particles and retroviral vaccines” (priority 2003, published 2007).
# Biological target: HIV protease (Human immunodeficiency virus type 1 group M subtype B, UniProt P12497)
# Assay type: cell-based, HIV-1
# Description: Retrovirus-like particles and virions were isolated by centrifugation through a 20% sucrose pad in a SW28.1Ti rotor (Beckman-Coulter, Inc., Fullerton, Calif.) at 120,000 g at 4° C. for 1 hour. Immunoblot analyses of retrovirus-like particles and virion preparations (the equivalent of 10% of the transfection supernatant) were performed as previously described, using peroxidase-conjugated secondary antibodies and developed with the Enhanced ChemiLuminescence reagent (Amersham Life Science, Arlington Heights, Ill.). Rabbit antiserum against p6Gag (DJ-30552) and goat antiserum against, p7NC (#77), p17MA (#83), or p24CA (#81) were obtained from the AIDS Vaccine Program. Monoclonal antibody against reverse transcriptase was obtained from Perkin Elmer/NEN Life Science. N-terminal protein sequence analysis was carried out on an Applied Biosystems Procise model 494 microsequencer (Foster City, Calif.) as previously described (Chertova et al., J. Virol., 76:5315 (2002)). Micro-scale high-pressure liquid chromatography (HPLC) was performed as previously described (Chertova et al., J. Virol. 76:5315 (2002)). Matrix-assisted laser desorption/ionization-time-of-flight (MALDI) mass spectrometry was carried out as previously described (Ott et al., J. Virol., 73:19 (1999)) using a Kratos Kompact Probe (Kratos Analytical Inc., Chestnut Ridge, N.Y.).
# To examine protease activity and mutant budding in another way, 293T cells were transfected with pNL4-3 or DelNC and then treated without or with 10 nM of the protease inhibitor Saquinavir for 24 hours.
smiles,measurement,value
CC(C)(C)NC(=O)[C@@H]1C[C@@H]2CCCC[C@@H]2CN1C[C@@H](O)[C@H](Cc1ccccc1)NC(=O)[C@H](CC(N)=O)NC(=O)c1ccc2ccccc2n1 [Saquinavir],effect on DelNC Gag processing,essentially eliminated
same,effect on amount of pNL4-3 virions in the medium,not largely increased
same,effect on cleavage of NL4-3 Gag,only a slight reduction
same,effect on production of DelNC retrovirus-like particles,increased
